Assay [1] relates to H9 cells. The assay is described as follows: Low seeding density screen for synergy with Chroman 1 and Emricasan. The class given is cell-based, human. Conditions: validation of qHTS hits. On the procedure: To extend and maximize the use of Chroman 1 and Emricasan for low cell seeding density conditions and single cell cloning, we developed another combinatorial screening strategy. Experimental studies were performed that identified Trans-ISRIB and polyamines as additional cell survival-promoting factors. An assay was developed to screen for compounds that are capable of overcoming cellular stress associated with low cell seeding density. The experiments aimed to define the detection limit and signal strength of the CTG assay in order to detect single cells per well. H9 cells (obtained from WiCell) were used.
Dissociated stem cells were plated onto vitronectin-coated 1536-well plates at the per-well densities indicated on the X-axis. All the plates were prepared in duplicates. One set of plates was read with CTG right after dispensing (r1), and the other set was read 24 hours after (r2). The CTG fold change plotted on Y-axis was calculated as the ratio of r2 to r1 (r2/r1) to reflect cell survival and growth within 24 hours. […] The middle line within the box is the median cell growth. The upper and lower box hinges represent the 75th and 25th percentiles, whereas the upper and lower whiskers extend from the box hinge to the largest or lowest value no further than 1.5× distance between 25th and 75th percentile.

Assay [2] concerns H9 cells. Put plainly: Colony formation at 25 cells/cm2. The class given is cell-based, human. As for the experimental part: The experiments were performed validating the “hits” obtained from the primary screening. Pluripotent stem cells (H9 cells obtained from WiCell) were dissociated using TrypLE (Thermo-Fisher) and seeded into 6-well plates at a density of 25 cells/cm′.
Whole-well images (6-well plate) were captured with calcein green (0.5 μg/mL; Thermo Fisher Scientific, catalog number: C34852).
Systematic comparison of small molecule combinations and their effect on colony number and colony size of hESCs plated on vitronectin at 25 cells/cm^2 in StemFlex medium was performed. The quantification of the colony formation rate and median colony size was performed 6 days after plating.

The source of these data is patent US20210348119A1, “COMPOSITIONS AND METHODS FOR CELL CULTURE” (The United States of America as Represented By The …, priority 2018, published 2021).

Turning to `O=C(COc1ccc(Cl)cc1)N[C@H]1CC[C@H](NC(=O)COc2ccc(Cl)cc2)CC1` [trans-ISRIB, N,N′-((1r,4r)-cyclohexane-1,4-diyl)bis(2-(4-chlorophenoxy)acetamide)], the “cell survival at low density combined with 50 nM Chroman 1 and 5 μM Emricasan” value in the assay with H9 cells [1] is reported as “cell survival-promoting effect”. Further, the “cell survival when added to the combination of Chroman 1 and Emricasan” value in the assay on H9 cells [2] was “further improved cell survival”.
